Our source for the Ki values is patent publication US9453034B2, “C2-azaspiro iminothiazine dioxides as BACE inhibitors, compositions, and their use” (Merck Sharp & Dohme Corp., priority 2013, dated 2016).

In test [1] the target is soluble human BACE1 catalytic domain (Homo sapiens (Human), UniProt P56817). Put plainly: BACE1 HTRF FRET Assay. Format: biochemical. To be noted: Ki calculated from IC50 using the Cheng-Prusoff equation; QSY7-APPswe-Eu substrate, pH 5.0. The text has this: Reagents: Na^+-Acetate pH 5.0; 1% Brij-35; Glycerol; Dimethyl Sulfoxide (DMSO);
soluble human BACE1 catalytic domain, sequence (P56817 75-416): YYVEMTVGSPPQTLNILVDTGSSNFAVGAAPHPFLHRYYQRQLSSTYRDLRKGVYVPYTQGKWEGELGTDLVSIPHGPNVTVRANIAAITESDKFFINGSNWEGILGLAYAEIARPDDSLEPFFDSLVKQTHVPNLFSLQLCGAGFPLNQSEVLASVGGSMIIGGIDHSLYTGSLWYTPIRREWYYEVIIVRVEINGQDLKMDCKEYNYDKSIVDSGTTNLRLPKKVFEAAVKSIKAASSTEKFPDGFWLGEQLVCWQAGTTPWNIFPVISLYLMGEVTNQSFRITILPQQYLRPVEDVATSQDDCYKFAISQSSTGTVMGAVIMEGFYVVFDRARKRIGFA
A homogeneous time-resolved FRET assay can be used to determine IC50 values for inhibitors of the soluble human BACE1 catalytic domain. This assay monitors the increase of 620 nm fluorescence that resulted from BACE1 cleavage of an APPswedish APP^swe mutant peptide FRET substrate (QSY7-[…]-Europium-amide). This substrate contains an N-terminal QSY7 moiety that serves as a quencher of the C-terminal Europium fluorophore (620 nm Em). […] Inhibition of BACE1 cleavage of the QSY7-APP^swe-Eu substrate by inhibitors is manifested as a suppression of 620 nm fluorescence.
Reactions are initiated by addition of 10 μl of 600 nM QSY7-APP^swe-Eu substrate (200 nM final) to give a final reaction volume of 30 μl in a 384 well Nunc HTRF plate. The reactions are incubated at 30° C. for 1.5 hours. The 620 nm fluorescence is then read on a Rubystar HTRF plate reader (BMG Labtechnologies) using a 50 millisecond delay followed by a 400 millisecond acquisition time window. Inhibitor IC50 values are derived from non-linear regression analysis of concentration response curves.

In test [2] the target is purified human autoBACE-2 (Homo sapiens (Human), UniProt Q9Y5Z0). Put plainly: BACE-2 Assay (BACE-HTRF assay). The note with it: Ki calculated from IC50 using the Cheng-Prusoff equation; QSY7-EISEVNLDAEFC-Eu-amide substrate, pH 5.0; read-out: BACE2 Ki. Format: biochemical. The procedure:
Inhibitor IC50s at purified human autoBACE-2 are determined in a time-resolved endpoint proteolysis assay that measures hydrolysis of the QSY7-EISEVNLDAEFC-Eu-amide FRET peptide substrate (BACE-HTRF assay). BACE-mediated hydrolysis of this peptide results in an increase in relative fluorescence (RFU) at 620 nm after excitation with 320 nm light. Inhibitor compounds, prepared at 3× the desired final concentration in 1×BACE assay buffer (20 mM sodium acetate pH 5.0, 10% glycerol, 0.1% Brij-35) supplemented with 7.5% DMSO are pre-incubated with an equal volume of autoBACE-2 enzyme diluted in 1×BACE assay buffer (final enzyme concentration 1 nM) in black 384-well NUNC plates for 30 minutes at 30° C. The assay is initiated by addition of an equal volume of the QSY7-EISEVNLDAEFC-Eu-amide substrate (200 nM final concentration, Km=8 μM […] for autoBACE-2) prepared in 1×BACE assay buffer supplemented with 7.5% DMSO and incubated for 90 minutes at 30° C. DMSO is present at 5% final concentration in the assay. Following laser excitation of sample wells at 320 nm, the fluorescence signal at 620 nm is collected for 400 ms following a 50 μs delay on a RUBYstar HTRF plate reader (BMG Labtechnologies). Raw RFU data is normalized to maximum (1.0 nM BACE/DMSO) and minimum (no enzyme/DMSO) RFU values. IC50s are determined by nonlinear regression analysis (sigmoidal dose response, variable slope) of percent inhibition data with minimum and maximum values set to 0 and 100 percent respectively. Similar IC50s are obtained when using raw RFU data. The Ki values are calculated from the IC50 using the Cheng-Prusoff equation.

purified human autoBACE-2, sequence (Q9Y5Z0 63-473): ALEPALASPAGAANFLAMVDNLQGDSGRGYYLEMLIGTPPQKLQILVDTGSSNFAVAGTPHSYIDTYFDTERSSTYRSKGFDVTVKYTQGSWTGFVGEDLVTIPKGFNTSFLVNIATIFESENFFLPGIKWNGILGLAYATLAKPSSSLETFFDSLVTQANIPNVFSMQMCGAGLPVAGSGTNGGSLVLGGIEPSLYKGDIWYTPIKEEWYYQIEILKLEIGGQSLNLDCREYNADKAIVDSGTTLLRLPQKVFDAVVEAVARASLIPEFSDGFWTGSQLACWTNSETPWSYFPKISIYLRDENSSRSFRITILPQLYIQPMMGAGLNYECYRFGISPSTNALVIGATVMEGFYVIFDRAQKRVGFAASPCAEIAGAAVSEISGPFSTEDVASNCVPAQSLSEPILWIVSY

`CN1CCC2(CC1)C(=N)N[C@](C)(c1cc(NC(=O)c3ccc(Cl)cn3)ccc1F)CS2(=O)=O` [Example 29, (R)-5-chloro-N-(4-fluoro-3-(5-imino-3,9-dimethyl-1,1-dioxido-1-thia-4,9-diazaspiro[5.5]undecan-3-yl)phenyl)picolinamide]: the Ki in test [1] is 12 nM; in test [2] it was 3 nM.
Turning to `CN1CCC2(CC1)C(=N)N[C@](C)(c1cc(NC(=O)c3ccc(OC(F)(F)F)cn3)ccc1F)CS2(=O)=O` [Example 30], the Ki in test [1] was 15 nM; in test [2], 52 nM.
As to `CN1CCC2(CC1)C(=N)N[C@](C)(c1cc(NC(=O)c3ccc(OC(F)F)cn3)ccc1F)CS2(=O)=O` [Example 31, 5-(difluoromethoxy)-N-{4-fluoro-3-[(3R)-5-imino-3,9-dimethyl-1,1-dioxido-1-thia-4,9-diazaspiro[5.5]undec-3-yl]phenyl}pyridine-2-carboxamide], the inhibitory constant (Ki) is 11 nM in test [1] and 27 nM in test [2].
On to `CN1CCC2(CC1)C(=N)N[C@](C)(c1cc(NC(=O)c3ccc(OCF)cn3)ccc1F)CS2(=O)=O` [Example 32, N-{4-fluoro-3-[(3R)-5-imino-3,9-dimethyl-1,1-dioxido-1-thia-4,9-diazaspiro[5.5]undec-3-yl]phenyl}-5-(fluoromethoxy) pyridine-2-carboxamide], for which the Ki in test [1] is 14 nM; in test [2], 11 nM.
The corresponding values for `COc1cnc(C(=O)Nc2ccc(F)c([C@]3(C)CS(=O)(=O)C4(CCN(C)CC4)C(=N)N3)c2)c(C)c1` [Example 33, N-{4-fluoro-3-[(3R)-5-imino-3,9-dimethyl-1,1-dioxido-1-thia-4,9-diazaspiro[5.5]undec-3-yl]phenyl}-5-methoxy-3-methylpyridine-2-carboxamide] are 37 nM and 23 nM.
For `COc1cnc(C(=O)Nc2ccc(F)c([C@]3(C)CS(=O)(=O)C4(CCN(C)CC4)C(=N)N3)c2)c(C)n1` [Example 34, N-{4-fluoro-3-[(3R)-5-imino-3,9-dimethyl-1,1-dioxido-1-thia-4,9-diazaspiro[5.5]undec-3-yl]phenyl}-5-methoxy-3-methylpyrazine-2-carboxamide], the values for the Ki in test [1] and in test [2] were 37 nM and 23 nM, respectively.
For `Cc1cc(C#N)cnc1C(=O)Nc1ccc(F)c([C@]2(C)CS(=O)(=O)C3(CCN(C)CC3)C(=N)N2)c1` [Example 35, 5-cyano-N-{4-fluoro-3-[(3R)-5-imino-3,9-dimethyl-1,1-dioxido-1-thia-4,9-diazaspiro[5.5]undec-3-yl]phenyl}-3-methylpyridine-2-carboxamide], the figures for the Ki in test [1] and in test [2] were 35 nM and 24 nM, respectively.
For the compound `CC#CCOc1ccc(C(=O)Nc2ccc(F)c([C@]3(C)CS(=O)(=O)C4(CCN(C)CC4)C(=N)N3)c2)nc1` [Example 36, 5-(but-2-yn-1-yloxy)-N-{4-fluoro-3-[(3R)-5-imino-3,9-dimethyl-1,1-dioxido-1-thia-4,9-diazaspiro[5.5]undec-3-yl]phenyl}pyridine-2-carboxamide], the inhibitory constant (Ki) was 2.3 nM in test [1] and 30 nM in test [2].
For the compound `COCC(=O)Nc1ccc(F)c([C@]2(C)CS(=O)(=O)C3(CCN(C)CC3)C(=N)N2)c1` [Example 36b, N-{4-fluoro-3-[(3R)-5-imino-3,9-dimethyl-1,1-dioxido-1-thia-4,9-diazaspiro[5.5]undec-3-yl]phenyl}-2-methoxyacetamide], the figures for the Ki in test [1] and in test [2] were 548 nM and 56 nM, respectively.
The corresponding values for `C[C@@]1(c2cc(NC(=O)c3ccc(C#N)cn3)ccc2F)CS(=O)(=O)C2(CNC2)C(=N)N1` [Example 36c, (R)-5-cyano-N-(4-fluoro-3-(9-imino-7-methyl-5,5-dioxido-5-thia-2,8-diazaspiro[3.5]nonan-7-yl)phenyl)picolinamide] are 3.7 nM and 2.6 nM.
For the compound `COc1ccc(C(=O)Nc2ccc(F)c([C@]3(C)CS(=O)(=O)C4(CNC4)C(=N)N3)c2)nc1` [Example 36d, (R)—N-(4-fluoro-3-(9-imino-7-methyl-5,5-dioxido-5-thia-2,8-diazaspiro[3.5]nonan-7-yl)phenyl)-5-methoxypicolinamide], the Ki is 22 nM in test [1] and 16 nM in test [2].
As to `Cc1cc(C#N)cnc1C(=O)Nc1ccc(F)c([C@]2(C)CS(=O)(=O)C3(CNC3)C(=N)N2)c1` [Example 36e, 5-cyano-N-{4-fluoro-3-[(7R)-9-imino-7-methyl-5,5-dioxido-5-thia-2,8-diazaspiro[3.5]non-7-yl]phenyl}-3-methylpyridine-2-carboxamide], the Ki in test [1] is 4.1 nM; in test [2], 1.8 nM.
For the compound `COc1ccc(C(=O)Nc2ccc(F)c([C@]3(C)CS(=O)(=O)C4(CN(C(C)=O)C4)C(=N)N3)c2)nc1` [Example 37, (R)—N-(3-(2-acetyl-9-imino-7-methyl-5,5-dioxido-5-thia-2,8-diazaspiro[3.5]nonan-7-yl)-4-fluorophenyl)-5-methoxypicolinamide], the Ki was 1.6 nM in test [1] and 1.1 nM in test [2].
As to `COc1ccc(C(=O)Nc2ccc(F)c([C@]3(C)CS(=O)(=O)C4(CN(S(C)(=O)=O)C4)C(=N)N3)c2)nc1` [Example 38, (R)—N-(4-fluoro-3-(9-imino-7-methyl-2-(methylsulfonyl)-5,5-dioxido-5-thia-2,8-diazaspiro[3.5]nonan-7-yl)phenyl)-5-methoxypicolinamide], the values for the Ki in test [1] and in test [2] were 6.5 nM and 2.3 nM, respectively.
On the same counts, the results for `CNC(=O)N1CC2(C1)C(=N)N[C@](C)(c1cc(NC(=O)c3ccc(OC)cn3)ccc1F)CS2(=O)=O` [Example 39, (R)-7-(2-fluoro-5-(5-methoxypicolinamido)phenyl)-9-imino-N,7-dimethyl-5-thia-2,8-diazaspiro[3.5]nonane-2-carboxamide 5,5-dioxide] are 7.3 nM and 1.7 nM.
For `COc1ccc(C(=O)Nc2ccc(F)c([C@]3(C)CS(=O)(=O)C4(CN(Cc5ccccc5)C4)C(=N)N3)c2)nc1` [Example 40, (R)—N-(3-(2-benzyl-9-imino-7-methyl-5,5-dioxido-5-thia-2,8-diazaspiro[3.5]nonan-7-yl)-4-fluorophenyl)-5-methoxypicolinamide], the figures for the Ki in test [1] and in test [2] were 7.7 nM and 0.6 nM, respectively.
On the same counts, the results for `COc1ccc(C(=O)Nc2ccc(F)c([C@]3(C)CS(=O)(=O)C4(CN(c5ccc([N+](=O)[O-])cc5)C4)C(=N)N3)c2)nc1` [Example 42, (R)—N-(4-fluoro-3-(9-imino-7-methyl-2-(4-nitrophenyl)-5,5-dioxido-5-thia-2,8-diazaspiro[3.5]nonan-7-yl)phenyl)-5-methoxypicolinamide] are 1.4 nM and 0.32 nM.
